Source: patent US11247976B2, “Synthetic ligands that modulate the activity of the RhlR quorum sensing receptor” (Wisconsin Alumni Research Foundation, priority 2016, dated 2022)

How the values were obtained:
RhlR [1] = molecular target: T1, RhlR (Pseudomonas aeruginosa, UniProt P54292); test: E. coli RhlR reporter antagonism assay vs 10 μM BHL (JLD271/pJN105R2/pSC11-rhlI*); assay type: cell-based, P. aeruginosa; conditions: for inhibition at 10 µM: read-out: % inhibition (10 μM), compound at 10 μM in the presence of 10 μM BHL; for inhibition at 1000 µM: read-out: % inhibition (1 mM), compound at 1 mM in the presence of 10 μM BHL
T1 construct: expressed in transfected cells; host or cells: E. coli JLD271 (ΔsdiA) with pJN105R2 (arabinose-induced) and pSC11-rhlI*
T1 sequence (P54292 whole entry): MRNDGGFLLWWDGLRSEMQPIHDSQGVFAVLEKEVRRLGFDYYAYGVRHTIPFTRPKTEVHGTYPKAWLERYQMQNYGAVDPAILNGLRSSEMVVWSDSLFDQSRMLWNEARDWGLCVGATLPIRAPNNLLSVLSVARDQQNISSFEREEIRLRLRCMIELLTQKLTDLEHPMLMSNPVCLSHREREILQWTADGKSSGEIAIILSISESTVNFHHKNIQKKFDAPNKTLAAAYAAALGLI
Description: (§1) All media and reagents for bacterial culture were purchased from commercial sources. Bacteria were cultured in Luria-Bertani broth (LB) at 37° C. with shaking at 200 rpm unless otherwise noted. The bacterial reporter strains used for this study were (i) the heterologous E. coli strain JLD271 (ΔsdiA) harboring the RhlR expression plasmid pJN105R2 and the rhlI-lacZ transcriptional fusion reporter pSC11-rhlI*, (ii) the heterologous E. coli strain JLD271 (ΔsdiA) harboring the LasR expression plasmid pJN105L and the […] transcriptional fusion reporter pSC11, and (iii) the P. aeruginosa strain PAO-JP2 (ΔlasrhlI) harboring the rhlI-gfp transcriptional fusion reporter prhlI-LVAgfp. Reporter strains JLD271/pJN105R2/pSC11-rhlI* and JLD271/pJN105L/pSC11 were grown in LB containing 100 μg/mL ampicillin and 10 μg/mL gentamicin. Freezer stocks of bacterial strains were maintained at −80° C. in 1:1 LB:50% glycerol.
To evaluate the modulatory activities of library compounds on RhlR and LasR using E. coli reporters, the strains JLD271/pJN105R2/pSC11-rhlI* and JLD271/pJN105L/pSC11 were used, respectively, as previously described.^38, 51 The following modifications were used in the RhlR agonism reporter assay, non-native compounds (10 μM or 1 mM) were compared to 1 mM BHL as the positive control. Briefly, a subculture was prepared by diluting an overnight culture 1:10 with fresh media containing 100 μg/mL ampicillin and 10 μg/mL gentamicin, and was incubated until it had grown to OD600=0.45. In all assays, L-arabinose was added to a final concentration of 4 mg/mL to induce RhlR expression. For RhlR agonism assays, activities of test compounds were measured relative to 1 mM BHL (the concentration required to induce a maximal level of RhlR activity). […] Activity was measured relative to 10 μM BHL. Inhibition was calculated by subtracting 100% from the relative activity value. Thus, 0% inhibition mimics represents no competitive displacement of 10 μM BHL by a test compound. In all assays, modifications were made to the standard Miller assay protocol to accommodate the use of the chlorophenol red-β-D-galactopyranoside (CPRG) β-galactosidase substrate. After cell lysis, 150 μL of the aqueous layer was transferred from each well of a solvent-resistant 96-well microtiter plate to the wells of a new clear, flat-bottom 96-well microtiter plate. CPRG (4 mg/mL in phosphate-buffered saline) was added to each well in 25 μL volumes. Plates were incubated at 30° C. until the positive control wells developed a red color (approximately 30 min). The amount of processed CPRG substrate was assessed by measuring the absorbance of each well at 570 nm. Enzymatic activity was calculated using the following equation: adjusted Miller units=1000·Abs570/(OD600·t·V),
(§2) where t is the incubation time of substrate with lysate and V is the volume of culture lysed.
The RhlR-modulatory activity of the J library compounds was assessed in a heterologous reporter strain (E. coli JLD271 harboring plasmids pJN105R2 and pSC11-rhlI*) in order to isolate the RhlR receptor from upstream QS regulation (e.g. regulation by LasR). Thus, the extent to which compounds were directly modulating RhlR could be determined. These assays were performed by incubating compound-treated, mid-log phase E. coli reporter cells in 96-well microtiter plates, followed by Miller assay evaluation of ß-galactosidase activity.
RhlR agonism and antagonism screens of each compound were performed initially at 10 μM.

RhlR [2] = molecular target: T1, RhlR; test: E. coli RhlR reporter agonism assay (JLD271/pJN105R2/pSC11-rhlI*); assay type: cell-based, P. aeruginosa; conditions: for RhlR agonist activity in words: single-concentration screen at 10 μM
Description: as §1
To evaluate the modulatory activities of library compounds on RhlR and LasR using E. coli reporters, the strains JLD271/pJN105R2/pSC11-rhlI* and JLD271/pJN105L/pSC11 were used, respectively, as previously described.^38, 51 The following modifications were used in the RhlR agonism reporter assay, non-native compounds (10 μM or 1 mM) were compared to 1 mM BHL as the positive control. Briefly, a subculture was prepared by diluting an overnight culture 1:10 with fresh media containing 100 μg/mL ampicillin and 10 μg/mL gentamicin, and was incubated until it had grown to OD600=0.45. In all assays, L-arabinose was added to a final concentration of 4 mg/mL to induce RhlR expression. For RhlR agonism assays, activities of test compounds were measured relative to 1 mM BHL (the concentration required to induce a maximal level of RhlR activity). For RhlR antagonism assays, test compounds were competed against a concentration of BHL approximately equal to its EC50 value (10 μM). Activity was measured relative to 10 μM BHL. Inhibition was calculated by subtracting 100% from the relative activity value. Thus, 0% inhibition mimics represents no competitive displacement of 10 μM BHL by a test compound. In all assays, modifications were made to the standard Miller assay protocol to accommodate the use of the chlorophenol red-β-D-galactopyranoside (CPRG) β-galactosidase substrate. After cell lysis, 150 μL of the aqueous layer was transferred from each well of a solvent-resistant 96-well microtiter plate to the wells of a new clear, flat-bottom 96-well microtiter plate. CPRG (4 mg/mL in phosphate-buffered saline) was added to each well in 25 μL volumes. Plates were incubated at 30° C. until the positive control wells developed a red color (approximately 30 min). The amount of processed CPRG substrate was assessed by measuring the absorbance of each well at 570 nm. Enzymatic activity was calculated using the following equation: adjusted Miller units=1000·Abs570/(OD600·t·V),
as §2
Because LuxR-type receptors are often unstable in solution, preventing the use of in vitro assays to directly assess small molecule agonism and antagonism, reporter gene assays represent a standard method for screening small-molecule libraries for LuxR-type receptor modulation. Previously reported strains for this purpose were used in the current study.^38 Synthetic N-butanoyl L-homoserine lactone (BHL), the native ligand of RhlR, was used as the positive control for receptor activation. Commonly, agonists are measured relative to maximum possible receptor activation within a particular assay medium;^40 because the dose-response curve of BHL is distinctly shallow in these RhlR reporters, a high concentration of BHL is required to maximally activate RhlR. In this study, activation of compounds was measured relative to that elicited by 1 mM BHL (the concentration of BHL used causes no aberrant growth effects in the reporter strain). […]

[3] = negative = agonism stronger than 10 μM BHL alone
[4] = compound at 10 μM, RhlR activity relative to 1 mM BHL, E. coli reporter

SMILES	inhibition at 10 µM (RhlR [1]; [3]) [%]	inhibition at 1000 µM (RhlR [1]; [3]) [%]	activation at 10 µM (RhlR [2]; [4]) [%]	other results
CCC(CC)C(=O)N[C@H]1CCOC1=O [Compound J22]	2	-66	28	–
O=C(N[C@H]1CCOC1=O)C1CC1 [Compound J23]	-2	-69	32	RhlR agonist activity in words (RhlR [2]; E. coli reporter): comparably less active than their respective counterparts
O=C(CC1CC1)N[C@H]1CCOC1=O [Compound J25]	-47	-108	70	EC50 (RhlR [2]): 2760 nM; RhlR agonist potency in words (RhlR [2]; dose-response, E. coli reporter): significantly more potent than BHL; Emax (RhlR [2]; read-out: Maximum Activation (%)): 95%; RhlR agonist activity in words (RhlR [2]; E. coli reporter): strong
CC1(C(=O)N[C@H]2CCOC2=O)CC1 [Compound J27, 1-methyl-cylclopropanoyl AHL]	2	24	2	RhlR antagonist activity in words (RhlR [1]; E. coli reporter vs 10 μM BHL): capable of inhibiting RhlR activity to a statistically significant extent; RhlR agonist activity in words (RhlR [2]; E. coli reporter): inactive
CCCCCCCCCC(=O)CC(=O)N[C@H]1CCOC1=O [OdDHL, N-(3-oxododecanoyl) HL, reference compound]	–	–	–	% inhibition (10 μM) (RhlR [1]; compound at 10 μM in the presence of 10 μM BHL, negative = agonism stronger than 10 μM BHL alone): 18%; % inhibition at 200 µM (RhlR [1]; screened at a maximal concentration of 200 microM (solubility), in the presence of 10 μM BHL): 53%; % activation (RhlR [2]; [4]): 5%
CCCC(=O)NC1CCOC1 (stereo not shown) [RN2]	-5	20	0	–
CCCC(=O)NC1CCCC1 [RN4]	9	45	0	–
CCCC(=O)N[C@@H]1CCOC1=O [RN5]	1	11	2	–
CCCS(=O)(=O)N[C@H]1CCOC1=O [RN6]	8	55	1	–
CCCC(=O)O[C@H]1CCOC1=O [RN7]	4	6	0	–
CCCC(=O)N[C@H]1CCNC1=O [RN9]	-1	35	1	–
CCCC(=O)NCC1CCCO1 (stereo not shown) [RN10]	1	57	0	–
CCCC(=O)NCC1CCCN1 (stereo not shown) [RN11]	-3	-1	0	–
